Values of other authors as cited in publication PMC6931124, “NPY1R-targeted peptide-mediated delivery of a dual PPARα/γ agonist to adipocytes enhances adipogenesis and prevents diabetes progression” (Molecular Metabolism, 2019).

System: 12-week-old db/db mice
Settings: ref [100], cited from earlier work
Excerpt: In contradiction to previous tesa in vivo studies, no major improvements in hyperglycemia (serum HbA1C) and serum insulin levels were detected in the treated mice compared to the untreated animals. […] No major changes in the total serum glucose occurred and the insulin levels remained unchanged as the mice adapted to the amount of glucose in their blood. An additional ...

## COc1ccc(OC(=O)N(CC(=O)O)Cc2ccc(OCCc3nc(-c4ccccc4)oc3C)cc2)cc1 [muraglitazar]
2–4 weeks
  control of glucose and insulin levels, 2–4 weeks: treatment for 2–4 weeks did
One week
  control of glucose and insulin levels, one week: did not lead to significant effects
